In US5444042A, “Method of treatment of neurodegeneration with calpain inhibitors” (Cortex Pharmaceuticals, priority 1994, dated 1995):
Where a SMILES comes first, the peptide text is derived from it. The star is where a group is joined. Cbz = O=C(OCc1ccccc1)*; CH2Cl = ClC*

Experiments:
[1] = target: T1, Papain (Carica papaya, UniProt P00784); assay: Papain inhibition, Ki by Dixon plot (Table PKC1); format: biochemical; details: 0.05M Tris-HCl pH 7.5, 2 mM EDTA, 5 mM cysteine, 1% DMSO, 25° C., substrate Nα-Benzoyl-Arg-AMC; read-out: Ki P (Papain)
T1 sequence (P00784 134-345): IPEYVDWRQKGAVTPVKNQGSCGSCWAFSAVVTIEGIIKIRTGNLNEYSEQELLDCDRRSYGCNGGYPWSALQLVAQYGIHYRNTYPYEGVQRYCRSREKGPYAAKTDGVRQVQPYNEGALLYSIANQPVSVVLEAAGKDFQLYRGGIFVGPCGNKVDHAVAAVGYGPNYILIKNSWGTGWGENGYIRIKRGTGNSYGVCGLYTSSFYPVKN
Protocol: (§1) Various concentrations of inhibitors in dimethylsulfoxide (DMSO) were added to the assay mixture, which contained buffer and substrate. The reaction was started by the addition of the enzyme and the hydrolysis rates were followed spectrophotometrically or fluorimetrically. 88 mM KH2 PO4, 12 mM Na2 HPO4, 1.33 mM EDTA, 2.7 mM cysteine, pH 6.0 was used as a buffer for cathepsin B; and 20 mM Hepes, 10 mM CaCl2, 10 mM β-mercaptoethanol, pH 7.2 buffer was utilized for calpain I and calpain II.
(§2) All peptide thioester hydrolysis rates were measured with assay mixtures containing 4,4'-dithiodipyridine [e324=19800 M-1 cm-1; Grasetti & Murray, Arch. Biochem. Biophys. 119, pp 41-49 (1967)]. Papain was assayed with Bz-Arg-AMC or Bz-Arg-NA [Kanaoka et al., Chem. Pharm. Bull. 25, 3126-3128 (1977)], and the AMC (7-amino-4-methylcoumarin) release was followed fluorimetrically (excitation at 380 nm, and emission at 460 nm). Cathepsin B was assayed with Z-Arg-Arg-AFC [Barrett and Kirschke, Methods Enzymol. 80, 535-561 (1981)], and the AFC (7-amino-4-trifluoromethylcoumarin) release was followed fluorimetrically (excitation at 400 nm, and emission at 505 nm). Calpain I from human erythrocytes and calpain II from rabbit were assayed using Suc-Leu-Tyr-AMC [Sasaki et al., J. Biol. Chem. 259, 12489-12494 (1984), hereby incorporated by reference], and the AMC (7-amino-4-methylcoumarin) release was followed fluorimetrically (excitation at 380 nm, and emission at 460 nm). Enzymatic hydrolysis rates were measured at various substrate and inhibitor concentrations, and Ki values were determined by Dixon plot.
The inhibition constants for papain shown in Table PKC1 were measured in 0.05M Tris-HCl, pH 7.5 buffer, containing 2 mM EDTA, 5 mM cysteine (freshly prepared), 1% DMSO, at 25° C., using N^α -Benzoyl-Arg-AMC as a substrate, except that those values of inhibition constants for papain marked with an "e" in Table PKC1 were measured in 50 mM Tris-HCl, pH 7.5 buffer, containing 20 mM EDTA, 5 mM cysteine, 9% DMSO, at 25° C., using N^α -Benzoyl-Arg-NA as a substrate.

[2] = target: Cathepsin B (Bos taurus, UniProt P07688); assay: Cathepsin B inhibition, Z-Arg-Arg-AFC (Table PKC1); format: biochemical; details: pH 6.0 phosphate buffer, substrate Z-Arg-Arg-AFC; read-out: Ki CB (Cathepsin B)
Protocol: as §1, §2

[3] = target: T2, Calpain I from human erythrocytes (Homo sapiens, UniProt P07384); assay: Calpain I inhibition, Suc-Leu-Tyr-AMC (Table PKC1); format: biochemical; details: 20 mM Hepes, 10 mM CaCl2, 10 mM β-mercaptoethanol, pH 7.2; read-out: Ki CI (Calpain I)
T2 construct: Calpain I from human erythrocytes and calpain II from rabbit were assayed using Suc-Leu-Tyr-AMC; from tissue; host or cells: human erythrocytes
T2 sequence (P07384 1-714): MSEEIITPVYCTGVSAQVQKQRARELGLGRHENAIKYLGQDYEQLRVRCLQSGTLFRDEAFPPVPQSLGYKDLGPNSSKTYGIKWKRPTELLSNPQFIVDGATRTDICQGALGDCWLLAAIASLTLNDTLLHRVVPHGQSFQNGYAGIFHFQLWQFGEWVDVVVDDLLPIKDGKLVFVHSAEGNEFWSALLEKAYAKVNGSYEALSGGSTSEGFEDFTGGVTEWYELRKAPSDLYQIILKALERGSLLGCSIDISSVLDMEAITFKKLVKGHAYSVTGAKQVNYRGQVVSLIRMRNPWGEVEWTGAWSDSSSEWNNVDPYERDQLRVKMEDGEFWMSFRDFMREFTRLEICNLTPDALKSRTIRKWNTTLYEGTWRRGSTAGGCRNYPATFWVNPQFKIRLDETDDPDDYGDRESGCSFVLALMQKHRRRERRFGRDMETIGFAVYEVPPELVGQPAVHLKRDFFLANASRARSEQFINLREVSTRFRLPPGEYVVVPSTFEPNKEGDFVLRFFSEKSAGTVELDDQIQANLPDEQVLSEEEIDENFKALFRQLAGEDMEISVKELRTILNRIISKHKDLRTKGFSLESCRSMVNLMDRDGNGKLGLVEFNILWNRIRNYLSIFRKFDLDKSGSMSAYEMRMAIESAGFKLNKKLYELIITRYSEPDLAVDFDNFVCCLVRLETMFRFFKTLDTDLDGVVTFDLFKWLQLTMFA
T2 sequence (P04632 1-268 partner): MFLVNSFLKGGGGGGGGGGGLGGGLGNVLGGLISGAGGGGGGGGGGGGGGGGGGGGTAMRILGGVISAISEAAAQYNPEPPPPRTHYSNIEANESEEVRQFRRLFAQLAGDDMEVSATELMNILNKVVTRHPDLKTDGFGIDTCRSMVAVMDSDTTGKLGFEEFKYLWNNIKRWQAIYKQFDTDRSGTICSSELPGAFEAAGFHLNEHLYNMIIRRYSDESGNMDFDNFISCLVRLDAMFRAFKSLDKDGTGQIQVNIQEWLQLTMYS
Protocol: as §1, with “Our discovery of Peptide Keto-Compounds effective as Calpain Inhibitors was made through assay of the Peptide Keto-Compounds as reversible inhibitors. Various” for “Various”
as §2

[4] = tested on: Calpain II; assay: Kapp/[I] progress curve method, Calpain II (Table 1C); format: biochemical; parameters: unit not given here; details: Rabbit Calpain II, Suc-leu-tyr-amidomethylcoumarin
Protocol: The Halo-Ketone Peptides, like the substituted isocoumarins, are irreversible inhibitors of Calpain. We determined the Kapp /[I] values for various members of this class of compounds against Calpains I and II. For comparison, we also determined these values against the additional thiol proteases Papain and Cathepsin B for at least one Halo-Ketone Peptide.
We assayed Calpain I and II using Suc-leu-tyr-amidomethylcoumarin. Papain was assayed using benzoyl-arg-4-nitroanilide, and Cathepsin B (bovine) was assayed using CBZ-lys-4-nitrophenyl ester. We followed the progress curve method of Tian and Tsou, Biochemistry, 21:1028-1032 (1982), the disclosure of which is hereby incorporated by reference, to derive kinetic data. Briefly, this method makes use of the equation: [formula] where [P.infin. ] represents the concentration of product formed at a time approaching infinity, A is the Kapp in the presence of substrate (S), K is the Michaelis constant and [Y] is the concentration of the inhibitor. Since [S] and [Y] are known and V and K can be determined, Kapp can be readily determined.

[5] = tested on: Calpain in crude brain extracts; assay: Ca2+-stimulated spectrin proteolysis in crude brain extracts (Example 2); format: biochemical; details: 100 μM
Outline: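 Brain tissue was homogenized in 10 mM Tris pH 7.4, 0.32 M sucrose, 1 mM EGTA and 1 mM DTT, and nuclei and debris were removed. Calpain activity was scored as Ca^2+-stimulated proteolysis of endogenous spectrin.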

[6] = target: T3, Calpain I (Homo sapiens, UniProt P07384); assay: Calpain I 14C-methylated casein proteolysis (Table 1A); format: biochemical
T3 sequence (P07384 1-714): T2 sequence (P07384 1-714)
T3 sequence (P04632 1-268 partner): T2 sequence (P04632 1-268 partner)
Protocol: (§3) The isocoumarins are irreversible inhibitors of Calpain. We obtained IC50 values for a variety of these Calpain Inhibitors as a kinetic analysis of these compounds.
(§4) Calpains I and II were purified by the method of (Yoshimura, et al. 1983). (Kitahara 1984) provides an alternative purification scheme. Calpain II may alternatively be purchased from Sigma Chemical Co. as "Calcium Activated Neutral Protease." In this assay, purified Calpain was incubated with ^14 C-methylated casein in the presence of various Heterocyclic Compounds and the amount of acid-soluble radioactivity released by the action of Calpain was measured.

[7] = tested on: Calpain within platelets; assay: Platelet membrane permeation assay, spectrin proteolysis (Examples 4A, 4B); format: cell-based, rat; details: 100 μM, A23187 1 μM
Outline: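 Rat (Sprague-Dawley) platelets at 10^7 cells/ml in HEPES buffer pH 7.4, preincubated 5 min with inhibitor, then 5 min with 1 μM A23187 to activate calpain. Spectrin proteolysis assessed by SDS-PAGE and anti-spectrin immunoblot, quantified by densitometry.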

[8] = target: T4, Calpain II (Homo sapiens, UniProt P17655); assay: Calpain II 14C-methylated casein proteolysis (Table 1A); format: biochemical
T4 construct: from tissue; purified by a cited method
T4 sequence (P17655 1-700): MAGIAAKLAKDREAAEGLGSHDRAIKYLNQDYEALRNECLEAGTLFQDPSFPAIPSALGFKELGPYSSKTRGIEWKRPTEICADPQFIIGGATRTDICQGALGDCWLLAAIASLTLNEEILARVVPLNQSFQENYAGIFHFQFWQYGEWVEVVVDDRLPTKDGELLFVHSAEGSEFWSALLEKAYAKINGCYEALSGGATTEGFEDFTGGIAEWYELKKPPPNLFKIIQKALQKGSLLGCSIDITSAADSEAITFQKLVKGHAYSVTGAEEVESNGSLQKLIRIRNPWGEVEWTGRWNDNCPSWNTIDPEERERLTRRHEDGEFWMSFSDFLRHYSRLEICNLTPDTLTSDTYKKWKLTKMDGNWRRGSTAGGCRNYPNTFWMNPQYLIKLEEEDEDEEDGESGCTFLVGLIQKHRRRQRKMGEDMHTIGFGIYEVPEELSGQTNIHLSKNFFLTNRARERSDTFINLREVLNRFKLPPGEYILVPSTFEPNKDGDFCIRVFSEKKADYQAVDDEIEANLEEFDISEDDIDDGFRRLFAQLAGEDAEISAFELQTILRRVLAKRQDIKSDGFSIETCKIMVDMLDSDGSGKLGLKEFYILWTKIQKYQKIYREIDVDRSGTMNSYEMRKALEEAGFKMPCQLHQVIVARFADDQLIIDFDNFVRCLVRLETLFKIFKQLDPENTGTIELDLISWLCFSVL
T4 sequence (P04632 1-268 partner): T2 sequence (P04632 1-268 partner)
Protocol: as §3, §4

[9] = tested on: N18-RE-105 cells; assay: Glutamate-induced cell death, MTT conversion (Example 5); format: cell-based; details: 5 mM glutamate, inhibitor 3 μg/ml, 19 hours
Protocol: Stock cultures of N18-RE-105 cells were maintained in Dulbecco's modified Eagle's medium (DMEM) containing 10% fetal bovine serum (FBS) and supplemented with hypoxanthine, aminopterin and thymidine (HAT). Subconfluent cultures were split and plated into 96-well plates. Twenty-four hours after plating the cells were exposed to fresh media containing glutamate and various concentrations of Calpain inhibitors. Control cells were not treated with glutamate. Conversion of MTT was measured 19 hours later as described. Nineteen hours after the onset of exposure, cell viability was quantitated by measuring the extent to which the cells convert 3(4,5-dimethylthiazol-2-yl)-2-5-diphenyltetrazolium bromide (MTT) to a blue formazan product, which occurs in the mitochondria of living but not dead cells (Pauwels et al., 1988). A higher absorbance is indicative of greater cell viability.

| SMILES | Kapp/[I] CII [4] | inhibition of spectrin proteolysis in crude brain extracts [5] | inhibition of Calpain within platelets [7] | other results |
| --- | --- | --- | --- | --- |
| CCOC(=O)C(=O)C(C)NC(=O)C(C)NC(=O)C(C)NC(=O)OCc1ccccc1 (racemic) [Z-Ala-Ala-DL-Ala-COOEt, Z-Ala-Ala-DL-Ala-CO2 Et] |  |  |  | Ki [1]: 1.5 µM; Ki [2]: 2.2 µM; Ki [3]: 200 µM |
| CC(=O)NC(C)C(=O)NC(C)C(=O)NC(C)C(=O)NC(C)C(=O)CCl (stereo not drawn) [Ac-Ala-Ala-Ala-Ala-CH2 Cl] (Ac-AAAA-CH2Cl; configuration not given here) | 1300 |  |  |  |
| N=C(N)SCCOc1oc(=O)c2cc(NC(=O)[C@H](N)Cc3ccccc3)ccc2c1Cl [D-Phe-NH-CiTEtOIC, 7-(D-phenylalanylamino)-4-chloro-3-(2-isothiureidoethoxy)isocoumarin] |  | significant inhibition | significant inhibition | IC50 [6]: 200 µM |
| N=C(N)SCCCOc1oc(=O)c2cc(NC(=O)[C@@H](N)Cc3ccccc3)ccc2c1Cl [L-Phe-NH-CiTPrOIC, 7-(L-phenylalanylamino)-4-chloro-3-(3-isothiureidopropoxy)isocoumarin] |  | significant inhibition | significant inhibition | IC50 [8]: 30 µM |
| N=C(N)SCCOc1oc(=O)c2cc(NC(=O)NCc3ccccc3)ccc2c1Cl [PhCH2 NHCONH-CiTEtOIC, 7-(benzylcarbamoylamino)-4-chloro-3-(2-isothiureidoethoxy)isocoumarin] |  | significant inhibition | significant inhibition | IC50 [6]: 90 µM |
| Cc1ccc(S(=O)(=O)N[C@@H](Cc2ccccc2)C(=O)CCl)cc1 [TPCK, Tosyl-PheCH2 Cl, reference compound] |  |  |  | blue formazan product relative to control without glutamate [9]: ≥ 100% |
| CC(NC(=O)OCc1ccccc1)C(=O)NC(Cc1ccccc1)C(=O)CCl (stereo not drawn) [Z-Ala-Phe-CH2 Cl] | 2400 |  |  |  |
| CC(C)CC(NC(=O)CNC(=O)OCc1ccccc1)C(=O)NC(C)C(=O)CCl (stereo not drawn) [Z-Gly-Leu-Ala-CH2 Cl] (Cbz-Gly-Leu-Ala-CH2Cl; configuration not given here) | 210000 | significant inhibition |  |  |
| CC(C)C(NC(=O)OCc1ccccc1)C(=O)NC(Cc1ccccc1)C(=O)CCl (stereo not drawn) [Z-Val-Phe-CH2 Cl] (Cbz-Val-Phe-CH2Cl; configuration not given here) | 27200 |  |  |  |
